Consider six molecules from US20230114808A1, “THERAPEUTIC RNA FOR PROSTATE CANCER” (BioNTech SE, priority 2019, published 2023).

A short description of series [1]: Respiratory safety (plethysmography) within GLP repeated dose toxicity studies (LPT No. 28864, 30283). In kind it is in vivo, mice. The following applies: positive control, 30 mg/kg b.w. As to the method:
Respiratory safety was included in repeated dose toxicity studies in mice using RNA DPs coding for TAAs in compliance with GLP (LPT No. 28864 and 30283, for study design see below). For example, plethysmography was tested in the study with RNA(LIP) (LPT No. 30283) with four animals/sex/group treated either with control buffer, a low and a high dose (5 and 50 μg of RNA formulated with 9 μg and 90 μg of liposomes, respectively). A positive control of animals treated with 30 mg Carbamyl-β-methylcholine chloride (bethanecol)/kg b.w. was also included. Plethysmography was performed one day after the 4th to 7th dosing. The tests included the evaluation of respiratory rate, tidal volume, minute volume, inspiratory time, expiratory time, peak expiratory and inspiratory flow, expiratory time, and airway resistance index.

Series [2] relates to KLK2, PSA (KLK3), PAP (ACPP), HOXB13, and NKX3-1. Kind of series: IFN-γ ELISPOT of splenocytes restimulated with mRNA-electroporated BMDCs after RNA(LIP) vaccination. In kind it is in vivo, A2/DR1 mice. The conditions noted are these: 30 μg of each antigen RNA complexed with liposomes, IV, four to five vaccinations, R&D-quality RNA. As to the method:
FIG. 18: Vaccination with W_pro1 antigen RNAs leads to antigen-specific T-cell responses. Splenocytes of intravenously vaccinated A2/DR1 mice (n=4-5/group) were restimulated for 20 h with BMDCs electroporated with the corresponding mRNAs as indicated. BMDCs electroporated with irrelevant mRNA were used as control (open symbols, grey bars). Effector function was measured using an IFN-γ ELISPOT assay. Symbols indicate mean values of triplicate wells from individual animals. Bars indicate median of all animals per group.
To obtain more information about the in vivo induction of antigen-specific T cells by the prostate specific antigens KLK2, PSA (KLK3), PAP (ACPP), HOXB13, and NKX3-1, RNA(LIP) products were prepared using RNA of R&D quality and liposomes of GMP-like quality. The RNA(LIP) products were injected intravenously into transgenic mice manipulated to express the human leukocyte antigens HLA-A*0201 and -DRB1*01. Using these mice the priming and expansion of T cells specific for HLA-restricted epitopes can be examined in vivo. A2/DR1 mice were vaccinated four to five times by injection of 30 μg of each antigen RNA complexed with liposomes, followed by isolation of spleen cells (5 days after last vaccination). The priming efficiency of the test items was evaluated by IFN-γ ELISPOT assay after restimulation with bone marrow derived dendritic cells (BMDC) electroporated with the respective mRNA or unrelated control mRNA.

The subject of series [3] is KLK2, KLK3 (PSA), ACPP (PAP), NKX3-1 or HOXB13. Kind of series: IFN-γ ELISPOT of splenocytes restimulated with peptide pools (Example 3). The conditions noted are these: 30 μg RNA(Lip) days 1, 8, 15, 22; splenocytes five days after final injection; unpaired t test. In kind it is in vivo, A2/DR1 mice. An excerpt:
IFN-γ ELISPOT analysis of T-cell effectors from the spleen of mice immunized with lipoplex-formulated RNA coding for KLK2(aa 1-261), KLK3(aa 1-261), ACPP(aa 1-418), HOXB13(aa 1-284) or NKX3-1(aa 1-234). Splenocytes obtained five days after the final immunization were re-stimulated with either a peptide pool spanning the respective human protein, P2/P16/P17 peptides or with an irrelevant control peptide CMV pp65(495-504). Dots represent individual animals; horizontal bars indicate the mean±SD of the three animals.
At day 1, day 8, day 15, and day 22 A2/DR1 mice were immunized with 200 μL of a 0.15 mg/mL RNA(Lip) solution which corresponds to 30 μg RNA(Lip).
Splenocytes were obtained from the immunized A2/DR1 mice five days after the final of four RNA(Lip) injections, and in vivo induction ofantigen-specificTcells was determined by ELISPOT analysis. To test for the immunogenicity, isolated splenocytes were re-stimulated with a peptide pool (15 mers, overlapping by 11 amino acids) spanning the respective human proteins, KLK2, KLK3 (PSA), ACPP (PAP), NKX3-1 or HOXB13. […] On all ELISPOT plates, the negative control medium alone induced only a minimal spot count regardless of the animal the splenocytes had been derived from.

In series [4] the test system is KLK2, PSA (KLK3), PAP (ACPP), HOXB13, and NKX3-1. Briefly: IFN-γ ELISPOT of splenocytes restimulated with mRNA-electroporated BMDCs after RNA(LIP) vaccination. In kind it is in vivo, A2/DR1 mice. The conditions noted are these: RNAs manufactured under GMP-conditions; study will be performed.

In the case of `CC(C[N+](C)(C)C)OC(N)=O.[Cl-]` (stereo not drawn) [Carbamyl-β-methylcholine chloride], in series [1], the “pulmonary parameters (plethysmography)” value is “expected alterations”.
Take “beta-S-ARCA(D1)-hAg-Kozak-ACPP-GS-P2P16-GS-MITD-FI-A30L70 [RBL040.1]”: the “antigen-specific T-cell responses in vivo” value in series [2] is listed as “induced antigen-specific T-cell responses”. The “IFN-γ+ spot count vs restimulation with control peptide CMV pp65” value in series [3] is recorded as “statistically higher”. In addition, the immunogenicity result in series [4] is “comparable to the results from earlier studies”.
For “beta-S-ARCA(D1)-hAg-Kozak-KLK2-GS-P2P16-GS-MITD-FI-A30L70 [RBL038.1]” the same measures were “induced antigen-specific T-cell responses”, “statistically higher” and “comparable to the results from earlier studies”.
For “beta-S-ARCA(D1)-hAg-Kozak-KLK3-GS-P2P16-GS-MITD-FI-A30L70 [RBL039.1]”, in series [2], the “antigen-specific T-cell responses in vivo” value was “induced antigen-specific T-cell responses”. Moreover, in series [4], the immunogenicity entry is listed as “comparable to the results from earlier studies”.
As to “beta-S-ARCA(D1)-hAg-Kozak-sec-GS-HOXB13-GS-P2P16-GS-MITD-FI-A30L70 [RBL041.1]”, the “antigen-specific T-cell responses in vivo” value in series [2] is “induced antigen-specific T-cell responses”. For the same molecule, the “IFN-γ+ spot count vs restimulation with control peptide CMV pp65” value in series [3] was “statistically higher”. Further, the immunogenicity entry in series [4] is given as “comparable to the results from earlier studies”.
For the molecule “beta-S-ARCA(D1)-hAg-Kozak-sec-GS-NKX31-GS-P2P16-GS-MITD-FI-A30L70 [RBL045.1]”, the “antigen-specific T-cell responses in vivo” value in series [2] was “induced antigen-specific T-cell responses”. In addition, the immunogenicity entry in series [4] is “comparable to the results from earlier studies”.
